Test results: US6399590B2, “Phosphoglycolipid and methods for its use” (Corixa Corporation, priority 1998, dated 2002)

Key:
[1] = system: Mongrel dogs, LAD occlusion/reperfusion; assay: Infarct size in dogs with bolus plus drug infusion; format: in vivo, dog; details: FIG. 3
Method: Mongrel dogs weighing 16-24 kg were randomly assigned to one of four groups: vehicle control; L34 high dose bolus plus infusion; L34 low dose bolus plus infusion and L34 bolus only. Animals in the L34 high dose bolus plus infusion group received an intravenous bolus injection of 70 μg/kg L34 formulated in vehicle (40% propylene glycol and 10% ethanol in water) and diluted in 5% dextrose in water to a final volume of 10 ml immediately followed by 40 μg/kg/h infusion of the drug beginning three hours prior to occlusion. The low dose bolus plus infusion group of dogs were bolus dosed with 35 μg/kg of drug followed immediately thereafter by infusion of drug at a dose of 4.0 μg/kg/h. […]
After stabilization, animals underwent a 60 min period of occlusion. Heart rate and arterial pressures were monitored at baseline, immediately before the sustained occlusion, and at 10 min after the onset of occlusion. […] The severity of ischemia was assessed in all dogs by measurement of RMBF at 10 min after the onset of LAD occlusion.
At the end of 3 h reperfusion the LAD was reoccluded and UNISPERSE® blue pigment (0.25-0.5 ml/kg) was injected into the coronary vasculature via the left atrial catheter to delineate the in vivo boundaries of the occluded LAD bed, and, with animals under deep anesthesia, cardiac arrest was produced by intracardiac injection of KCl. […] RMBF was then quantified using standard methods.

[2] = system: pig model of regional myocardial ischemia/reperfusion; assay: Infarct size in pigs, 40 min LAD occlusion and 3 h reperfusion; format: in vivo; details: i.v. 10 min prior to coronary artery occlusion (35 μg/kg); FIG. 4
Method: To assess the efficacy of L34 to reduce infarct size, nine pigs were assigned in a non-blinded fashion to one of four groups: (1) control (n=2), (2) vehicle control (n4), (3) L34 (35 μg/kg) (n=2), (4) L34 (70 μg/kg) (n=1). L34 was formulated in 10% ethanol, 40% propylene glycol in Water for Injection. Blinded studies were additionally conducted with eight pigs randomly assigned to one of two treatment groups: (1) A (n=4), (2) B (n=4). Group A and B were either vehicle control or L34. Vehicle or drug injection was diluted one to one with 5% dextrose in Water for Injection prior to administration.
Male pigs (15-20 kg) were anesthetized with ketamine (25 mg/kg, i.m.) and sodium pentobarbital (10 mg/kg, i.v.), intubated and mechanically ventilated with room air. Pigs were placed on a 37° C. circulating water heating pad. The left carotid artery of each animal was cannulated with 5Fr Millar catheter for measuring left ventricular pressure and the right carotid artery was cannulated with 24G I.V. catheter for sampling blood. A median sternotomy was performed and the pericardium was incised. […]
Following 40 min of occlusion, the snare was released and the myocardium was reperfused for 3 h. The hemodynamic parameters at certain time points were recorded and blood samples were collected. […]

[3] = system: TNF-α secretion by THP-1 cells; assay: TNF-α secretion in THP-1 cells (ELISA); format: cell-based, human; details: any concentration between 1 ng/ml and 10 μg/ml; supernatants at 4, 16 and 24 hours
Method: The human myelomonocytic cell line THP-1 is commonly used for the analysis of the proinflammatory status of various compounds. THP-1 cells (American Type Culture Collections Cat. No. 202-TIB) were grown in RPMI 1640, 10% heat inactivated fetal bovine serum (FBS) and […] β-mercaptoethanol to a cell density of between 4×10^5/ml and 7×10^5/ml. Cells were removed from culture and resuspended at 1×10^6 cells/ml in RPMI 1640 containing 5% fetal bovine serum. Resuspended cells were then pipetted into sterile, disposable polystyrene 150×25 mm petri dishes and treated with the natural maturational agent 1α, 25-dihyroxyvitamin D3 at 1×10^−7 M between 24 and 72 hours depending on the degree of maturation desired. These maturationally “pretreated” cells were then washed 3× in RPMI 1640 containing more than 2% but less than 10% fetal bovine serum. After the third wash cells were resuspended in RPMI 1640 containing 5% FBS plus 2% human AB sera (Irvine Scientific) at 5×10^5 cells/ml and transferred at 2 ml per well in a tissue culture grade, flat bottom polystyrene 24 well plate. […] Cytokine concentration in the THP-1 culture supernatants were quantified using standard human cytokine ELISA kits from R&D Laboratories. […]

## CCCCCCCCCCCCCCCCCC(=O)O[C@H](CCCCCCCCCCC)CC(=O)N[C@H]1[C@H](OC[C@H]2OC(O)[C@H](NC(=O)C[C@@H](CCCCCCCCCCC)OC(=O)CCCCCCCCCCCCCCC)[C@@H](O)[C@@H]2O)O[C@H](CO)[C@@H](OP(=O)(O)O)[C@@H]1OC(=O)C[C@@H](CCCCCCCCCCC)OC(=O)CCCCCCCCCCCCC (stereo partly drawn) [L34, 2-Deoxy-6-O-[2-deoxy-4-O-phosphono-3-O-[(R)-3-tetradecanoyloxytetradecanoyl]-2-[(R)-3-octadecanoyloxytetradecanoylamino]-β-D-glucopyranosyl]-2-[(R)-3-hexadecanoyloxytetradecanoylamino]-D-glucopyranose]
[1]; 70 μg/kg bolus only, 3 h before occlusion
  infarct size as ratio of area of necrosis (AN) to area at risk (AR): no reduction in infarct size
[1]; bolus (70 or 35 μg/kg) plus infusion (40 or 4.0 μg/kg/h) beginning 3 h prior to occlusion
  infarct size as ratio of area of necrosis (AN) to area at risk (AR): statistically significant reduction in infarct size
[2]
  reduction in infarct size expressed as % AN/AR in g compared to controls: 46%
[3]
  TNF-α secretion: did not induce detectable
